Target: T1, H723R-pendrin (Homo sapiens, UniProt O43511, H723R)
T1 construct: expressed in transfected cells; host or cells: PANC-1
T1 sequence (O43511 1-780 H723R): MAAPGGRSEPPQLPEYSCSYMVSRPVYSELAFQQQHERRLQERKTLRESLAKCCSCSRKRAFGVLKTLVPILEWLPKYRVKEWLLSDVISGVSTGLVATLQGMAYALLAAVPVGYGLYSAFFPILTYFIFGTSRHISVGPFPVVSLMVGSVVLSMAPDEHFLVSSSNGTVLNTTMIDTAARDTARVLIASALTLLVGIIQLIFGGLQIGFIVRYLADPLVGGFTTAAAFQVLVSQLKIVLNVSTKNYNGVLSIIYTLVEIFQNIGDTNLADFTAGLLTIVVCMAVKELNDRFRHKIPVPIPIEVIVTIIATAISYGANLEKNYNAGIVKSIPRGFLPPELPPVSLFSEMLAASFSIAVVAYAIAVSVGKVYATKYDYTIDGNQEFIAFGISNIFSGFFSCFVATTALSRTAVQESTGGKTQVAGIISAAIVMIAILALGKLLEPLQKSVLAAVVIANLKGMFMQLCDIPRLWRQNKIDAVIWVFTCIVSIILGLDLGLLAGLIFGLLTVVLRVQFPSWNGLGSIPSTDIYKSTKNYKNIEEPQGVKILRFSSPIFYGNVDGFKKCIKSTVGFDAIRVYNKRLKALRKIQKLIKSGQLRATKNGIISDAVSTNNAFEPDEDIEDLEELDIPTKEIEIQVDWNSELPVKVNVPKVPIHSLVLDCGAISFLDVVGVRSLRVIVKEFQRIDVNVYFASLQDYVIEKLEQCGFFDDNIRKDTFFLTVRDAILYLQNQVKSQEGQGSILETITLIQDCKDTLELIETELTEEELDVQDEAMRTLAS
Experiment: YFP fluorescence quenching assay (Cl−/I− exchange activity of pendrin)
Format: cell-based
Details: PANC-1 cells stably expressing human H723R-pendrin and YFP-F46L/H148Q/I152L; compound incubation 20-24 hours; iodide influx
Source text: Halide sensor YFP F46L/H148Q/I152L is quenched by halide ion like Iodide. When such YFP is expressed in a cell, it expresses in the cytoplasm.
To measure H723R-PDS activity, PANC-1 cells were stably transfected with halide sensors YFP-F46L/H148Q/I152L and H723R-PDS which has problems with membrane trafficking due to misfolding.
If the cell-treated drug is a corrector for H723R-PDS, H723R-PDS will translocate normally to the plasma membrane.
At this time, when treated with a high-concentration iodide solution outside the cell, iodide enters the cell due to the Cl−/I− exchange activity of pendrin, and the fluorescence of the halide sensor YFP decreases.
PANC-1 cells were cultured in Dulbecco's Modified Eagle's Medium with 10% fetal bovine serum, 2 mM glutamine, 100 units/ml penicillin and 100 µg/ml streptomycin. For high-throughput screening, PANC-1 cells were stably transfected with human H723R-pendrin and halide sensor YFP-F46L/H148Q/I152L.
PANC-1 cells expressing human H723R-pendrin and YFP-F46L/H148Q/I152L were plated in 96-well microplates at a density of 2×10^4 cells per well and grown for 20-24 hours at 37° C. (90% humidity 5% CO2). Then these cells were treated with 50 μl growth medium containing test compounds and incubated for 20-24 hours. For YFP quenching assay, each well of the 96-well plate was washed 2 times with 200 μl of PBS, and it was filled with 50 μl of HEPES-buffered solution (140 mM NaCl, 5 mM KCl, 1 mM MgCl2, 1 mM CaCl2, 10 mM D-glucose, 10 mM HEPES; pH 7.4 with NaOH). After 10 minutes of incubation at 37° C., the 96-well plate was moved on the FLUOstar Omega Microplate Reader (BMG Labtech, Ortenberg, Germany) for a fluorescence assay. Each well was assayed individually for H723R-pendrin mediated I^− influx by recording fluorescence (495±15 nm excitation, 520±20 nm emission) every 400 ms for 1 second (baseline). Then, 50 μL of NaI-substituted HEPES-buffered solution (NaI replacing NaCl) was added using a liquid injector at 1 second and YFP fluorescence was recorded every 400 ms for 10 seconds. The initial iodide influx rate was determined from the initial slope of fluorescence by nonlinear regression, after the infusion of iodide.
It is indicated as EC50 with the following key: A=EC50 less than 5 uM; B=EC50 greater than 5 uM, but less than 10 uM; C=EC50 greater than 10 uM.

EC50 [µM]	SMILES
> 10	NC1=C(c2cncc(-c3ccc(O)c(O)c3)n2)C(=O)CN1CC1CCOC1 (stereo not drawn) [Compound 41]
> 10	COc1ccc(-c2cncc(C3=C(N)N(c4ccccc4O)CC3=O)n2)cc1OC [Compound 42]
> 10	NC1=C(c2cncc(-c3ccc(O)c(O)c3)n2)C(=O)CN1c1ccccc1O [Compound 43]
< 5	COc1ccc(-c2cncc(C3=C(N)N(CCC4CCCC4)CC3=O)n2)cc1OC [Compound 44]
> 10	NC1=C(c2cncc(-c3ccc(O)c(O)c3)c2)C(=O)CN1c1ccccc1Cl [Compound 47]
> 10	COc1ccc(-c2cncc(C3=C(N)N(CC4CCCCC4)CC3=O)n2)cc1OC [Compound 48]
> 10	COc1ccc(-c2cncc(C3=C(N)N(CC4CCCC4)CC3=O)c2)cc1OC [Compound 50]
> 10	NC1=C(c2cncc(-c3ccc(O)c(O)c3)c2)C(=O)CN1CC1CCOC1 (stereo not drawn) [Compound 51]
> 10	COc1ccc(-c2cncc(C3=C(N)N(CC4CCN(C)C4)CC3=O)n2)cc1OC (stereo not drawn) [Compound 52]
> 10	CN1CCC(CN2CC(=O)C(c3cncc(-c4ccc(O)c(O)c4)n3)=C2N)C1 (stereo not drawn) [Compound 53]
> 10	NC1=C(c2cncc(-c3ccc(O)c(O)c3)c2)C(=O)CN1CC1CCCC1 [Compound 54]
> 10	COc1ccc(-c2cncc(C3=C(N)N(CC4CCNC4)CC3=O)c2)cc1OC (stereo not drawn) [Compound 55]
> 10	COc1ccc(-c2ccnc(C3=C(N)N(CC4CCCC4)CC3=O)n2)cc1OC [Compound 56]
< 5	NC1=C(c2ccnc(-c3ccc(O)c(O)c3)n2)C(=O)CN1c1ccccc1F [Compound 57]
> 10	COc1ccc(-c2ccc(C3=C(N)N(c4ccccc4Cl)CC3=O)cn2)cc1OC [Compound 58]
> 10	NC1=C(c2ccc(-c3ccc(O)c(O)c3)nc2)C(=O)CN1c1ccccc1Cl [Compound 59]
> 10	NC1=C(c2cncc(-c3ccc(O)c(O)c3)c2)C(=O)CN1CC1CCNC1 (stereo not drawn) [Compound 60]
> 10	COc1ccc(-c2cncc(C3=C(N)N(C4CCC(F)(F)C4)CC3=O)n2)cc1OC (stereo not drawn) [Compound 61]
5 to 10	COc1ccc(-c2cncc(C3=C(N)N(c4cccc(Cl)c4Cl)CC3=O)n2)cc1OC [Compound 63]
5 to 10	NC1=C(c2cncc(-c3ccc(O)c(O)c3)n2)C(=O)CN1c1cccc(Cl)c1Cl [Compound 64]

EC50 [µM]	SMILES
5 to 10	NC1=C(c2nccc(-c3ccc(O)c(O)c3)n2)C(=O)CN1CC1CCCC1 [Compound 65]
5 to 10	COc1ccc(-c2cncc(C3=C(N)N(CC4CCC4)CC3=O)n2)cc1OC [Compound 66]
> 10	NC1=C(c2cncc(-c3ccc(O)c(OC4CCC4)c3)n2)C(=O)CN1CC1CCCC1 [Compound 67]
> 10	COc1ccc(-c2cc(C3=C(N)N(c4ccccc4Cl)CC3=O)ncn2)cc1OC [Compound 68]
< 5	NC1=C(c2cncc(-c3ccc(O)c(OC4COC4)c3)n2)C(=O)CN1CC1CCCC1 [Compound 70]
> 10	COc1cc(-c2cncc(C3=C(N)N(CC4CCCC4)CC3=O)c2)ccc1O [Compound 71]
> 10	NC1=C(c2cc(-c3ccc(O)c(O)c3)ncn2)C(=O)CN1c1ccccc1Cl [Compound 72]
> 10	NC1=C(c2nccc(-c3ccc(O)c(O)c3)n2)C(=O)CN1c1ccccc1F [Compound 74]
> 10	COc1ccc(-c2cccc(C3=C(N)N(c4ccccc4Cl)CC3=O)n2)cc1OC [Compound 75]
> 10	NC1=C(c2cccc(-c3ccc(O)c(O)c3)n2)C(=O)CN1c1ccccc1Cl [Compound 76]
> 10	COc1ccc(-c2nccc(C3=C(N)N(CC4CCCC4)CC3=O)n2)cc1OC [Compound 77]
< 5	NC1=C(c2cncc(-c3ccc(O)c(O)c3)n2)C(=O)CN1c1ccccc1F [Compound 78]
< 5	NC1=C(c2ccnc(-c3ccc(O)c(O)c3)n2)C(=O)CN1CC1CCCC1 [Compound 79]
> 10	COc1ccc(-c2cccc(C3=C(N)N(CC4CCCC4)CC3=O)n2)cc1OC [Compound 80]
< 5	NC1=C(c2cccc(-c3ccc(O)c(O)c3)n2)C(=O)CN1CC1CCCC1 [Compound 81]
> 10	COc1ccc(-c2ccnc(C3=C(N)N(CC4CCNC4)CC3=O)n2)cc1OC (stereo not drawn) [Compound 82]
> 10	NC1=C(c2nccc(-c3ccc(O)c(O)c3)n2)C(=O)CN1CC1CCNC1 (stereo not drawn) [Compound 83]
> 10	COc1ccc(-c2ccnc(C3=C(N)N(CC4CCOC4)CC3=O)n2)cc1OC (stereo not drawn) [Compound 84]
> 10	COc1ccc(-c2cccc(C3=C(N)N(CC4CCNC4)CC3=O)n2)cc1OC (stereo not drawn) [Compound 85]
> 10	NC1=C(c2cccc(-c3ccc(O)c(O)c3)n2)C(=O)CN1CC1CCNC1 (stereo not drawn) [Compound 86]

EC50 [µM]	SMILES
5 to 10	COc1ccc(-c2cccc(C3=C(N)N(CC4CCOC4)CC3=O)n2)cc1OC (stereo not drawn) [Compound 87]
> 10	COc1ccc(-c2cncc(C3=C(N)N(CCC(F)(F)F)CC3=O)c2)cc1OC [Compound 88]
> 10	NC1=C(c2cncc(-c3ccc(O)c(OC4CNC4)c3)n2)C(=O)CN1CC1CCCC1 [Compound 89]
> 10	COc1cc(-c2cncc(C3=C(N)N(CC4CCNC4)CC3=O)c2)ccc1O (stereo not drawn) [Compound 90]
> 10	COc1cc(-c2cncc(C3=C(N)N(CC4CCOC4)CC3=O)c2)ccc1O (stereo not drawn) [Compound 91]
5 to 10	NC1=C(c2cccc(-c3ccc(O)c(O)c3)n2)C(=O)CN1c1ccccc1F [Compound 92]
> 10	COc1ccc(-c2cccc(C3=C(N)N(CCC(F)(F)F)CC3=O)n2)cc1OC [Compound 93]
> 10	NC1=C(c2cccc(-c3ccc(O)c(O)c3)n2)C(=O)CN1CCC(F)(F)F [Compound 94]
> 10	NC1=C(c2cncc(-c3ccc(O)c(O)c3)c2)C(=O)CN1CCC(F)(F)F [Compound 95]
> 10	COc1ccc(-c2ccnc(C3=C(N)N(CCC(F)(F)F)CC3=O)n2)cc1OC [Compound 96]
> 10	NC1=C(c2nccc(-c3ccc(O)c(O)c3)n2)C(=O)CN1CCC(F)(F)F [Compound 97]
> 10	COc1ccc(-c2nccc(C3=C(N)N(c4ccccc4Cl)CC3=O)n2)cc1OC [Compound 98]
< 5	COCCOc1cc(-c2cncc(C3=C(N)N(CC4CCCC4)CC3=O)n2)ccc1O [Compound 99]
> 10	COc1ccc(-c2cc(C3=C(N)N(c4ccccc4F)CC3=O)ccn2)cc1OC [Compound 100]
> 10	NC1=C(c2ccnc(-c3ccc(O)c(O)c3)c2)C(=O)CN1c1ccccc1F [Compound 101]
> 10	NC1=C(c2ccnc(-c3ccc(O)c(O)c3)c2)C(=O)CN1c1ccccc1Cl [Compound 102]
> 10	NC1=C(c2cncc(-c3ccc(O)c(OCCO)c3)n2)C(=O)CN1CC1CCCC1 [Compound 103]
5 to 10	NC1=C(c2cncc(-c3ccc(O)c(O)c3)n2)C(=O)CN1CC1CC(F)(F)C1 [Compound 104]
> 10	COc1ccc(-c2cc(C3=C(N)N(c4ccccc4Cl)CC3=O)ccn2)cc1OC [Compound 106]
< 5	CNCCOc1cc(-c2cncc(C3=C(N)N(CC4CCCC4)CC3=O)n2)ccc1O [Compound 107]
